Measured values as given in ChEMBL document CHEMBL3045477, “Dysfunctionality of the xylem in Olea europaea L. Plants associated with the infection process by Verticillium dahliae Kleb. Role of phenolic compounds in plant defense mechanism” (J Agric Food Chem, 2007).
In brackets after ≈: the same amount, converted by molar mass.

tested on: Verticillium dahliae; test: Antifungal activity against Verticillium dahliae assessed as inhibition of mycelial radial growth measured after 350 hr; type: functional, organism-based

Compound	IC50 [µg/mL]
O=C(O)/C=C/c1ccc(O)cc1 [COUMARIC ACID]	1470 (≈ 8950 µM)
O=c1cc(-c2ccc(O)c(O)c2)oc2cc(O[C@@H]3O[C@H](CO)[C@@H](O)[C@H](O)[C@H]3O)cc(O)c12 [GALUTEOLIN]	260 (≈ 580 µM)
C[C@@H]1O[C@@H](OC[C@H]2O[C@@H](Oc3c(-c4ccc(O)c(O)c4)oc4cc(O)cc(O)c4c3=O)[C@H](O)[C@@H](O)[C@@H]2O)[C@H](O)[C@H](O)[C@H]1O [RUTIN]	80 (≈ 131 µM)
Oc1cc(O)c2c(c1)OC(c1ccc(O)c(O)c1)C(O)C2 (stereo not drawn) [CATECHIN]	2100 (≈ 7230 µM)
O=c1cc(-c2ccc(O)c(O)c2)oc2cc(O)cc(O)c12 [LUTEOLIN]	7 (≈ 24.5 µM)
O=c1c(O)c(-c2ccc(O)c(O)c2)oc2cc(O)cc(O)c12 [QUERCETIN]	6 (≈ 19.9 µM)
OCCc1ccc(O)cc1 [TYROSOL]	660 (≈ 4780 µM)
C/C=C1/[C@H](O[C@@H]2O[C@H](CO)[C@@H](O)[C@H](O)[C@H]2O)OC=C(C(=O)OC)[C@H]1CC(=O)OCCc1ccc(O)c(O)c1 [OLEUROPEIN]	170 (≈ 315 µM)
